From PubChem BioAssay AID190 (DTP/NCI, 2004)
Values joined by “and” are separate entries in the source; they are usually repeats but may differ in a detail not shown here. Equal values may be shown once. Toxic doses and inconclusive results are not listed. How the source made its calls: active means survival T/C of 150% or more; inactive means T/C below 125% in these data.

Test system: AKR/Lw mice, AKR lymphoma ip, median survival T/C
Assay: NCI In Vivo Anticancer Drug Screen. Data for tumor model Lymphoma AKR (Transplanted) (intraperitoneal) in AKR/Lw mice
Details: endpoint: median survival time, higher = longer survival
Procedure: The antitumor activity of compounds was measured in mice bearing transplantable tumors. Survival or tumor size were measured and the results are expressed as the measurement made in the treated group (T) divided by the measurement made in the vehicle treated control group (C). The tumor model used in this assay is Lymphoma AKR (Transplanted) (intraperitoneal) in AKR/Lw mice

[1] = dose: 100.0 mg/kg/injection, schedule: Q01DX001 (ip), vehicle: Klucel (hydroxypropylcellulose) (HPC)
[2] = dose: 400.0 mg/kg/injection, schedule: Q01DX001 (ip), vehicle: Klucel (hydroxypropylcellulose) (HPC)
[3] = dose: 100.0 mg/kg/injection, schedule: Q04DX003 (ip), vehicle: Klucel (hydroxypropylcellulose) (HPC)
[4] = dose: 200.0 mg/kg/injection, schedule: Q04DX003 (ip), vehicle: Klucel (hydroxypropylcellulose) (HPC)
[5] = dose: 400.0 mg/kg/injection, schedule: Q04DX003 (ip), vehicle: Klucel (hydroxypropylcellulose) (HPC)
[6] = dose: 50.0 mg/kg/injection, schedule: Q04DX003 (ip), vehicle: Klucel (hydroxypropylcellulose) (HPC)
[7] = dose: 100.0 mg/kg/injection, schedule: Q01DX001 (ip), vehicle: saline
[8] = dose: 200.0 mg/kg/injection, schedule: Q01DX001 (ip), vehicle: saline
[9] = dose: 200.0 mg/kg/injection, schedule: Q01DX001 (ip), vehicle: Klucel (hydroxypropylcellulose) (HPC)
[10] = dose: 400.0 mg/kg/injection, schedule: Q01DX001 (ip), vehicle: saline

Measured: T/C

Cc1cccc(C)c1NC(=S)N(C)C
inactive: dose: 2.5 mg/kg/injection, schedule: Q04DX003 (ip), vehicle: Klucel (hydroxypropylcellulose) (HPC) 91 % of control | dose: 5.0 mg/kg/injection, schedule: Q04DX003 (ip), vehicle: Klucel (hydroxypropylcellulose) (HPC) 94 % of control | dose: 10.0 mg/kg/injection, schedule: Q04DX003 (ip), vehicle: Klucel (hydroxypropylcellulose) (HPC) 102 % of control | [1] 92 % of control | [2] 111 % of control

Nc1nc(N)nc(N)n1
inactive: [3] 97 % of control | [4] 108 % of control | [5] 86 % of control | dose: 800.0 mg/kg/injection, schedule: Q04DX003 (ip), vehicle: Klucel (hydroxypropylcellulose) (HPC) 105 % of control

CCn1c(O)c(C=N)c(=O)[nH]c1=O
inactive: dose: 50.0 mg/kg/injection, schedule: Q01DX001 (ip), vehicle: saline 102 % of control | [6] 87 % of control | [7] 94 % of control | [8] 94 % of control | [4] 93 % of control

CCOC(=O)C1OC12CCCCC2 (stereo not given)
inactive: [1] 96 % of control | [9] 92 % of control | [2] 100 % of control

c1ccc(CC(Cc2ccccc2)CN2CCCC2)cc1
inactive: [7] 94 % of control | [8] 88 % of control | [10] 123 % of control

COc1cc([C@@H]2c3cc4c(c(O)c3C[C@H]3COC(=O)[C@@H]32)OCO4)cc(OC)c1O
inactive: dose: 0.12 mg/kg/injection, schedule: Q01DX009 (ip), vehicle: Klucel (hydroxypropylcellulose) (HPC) 105 % of control | dose: 0.25 mg/kg/injection, schedule: Q01DX009 (ip), vehicle: Klucel (hydroxypropylcellulose) (HPC) 97 % of control

CN(C)c1nc(N(C)C)nc(N(C)C)n1
inactive: dose: 80.0 mg/kg/injection, schedule: Q04DX003 (ip), vehicle: Klucel (hydroxypropylcellulose) (HPC) 111 % of control | dose: 160.0 mg/kg/injection, schedule: Q04DX003 (ip), vehicle: Klucel (hydroxypropylcellulose) (HPC) 108 % of control

COc1cc([C@@H]2c3cc4c(cc3[C@H](O)[C@H]3COC(=O)[C@@H]23)OCO4)cc(OC)c1OC
inactive: dose: 6.0 mg/kg/injection, schedule: Q01DX009 (ip), vehicle: Klucel (hydroxypropylcellulose) (HPC) 110 % of control | dose: 12.0 mg/kg/injection, schedule: Q01DX009 (ip), vehicle: Klucel (hydroxypropylcellulose) (HPC) 120 % of control

COc1cc2ccc(CCNCc3ccccc3)cc2cc1OC
inactive: dose: 25.0 mg/kg/injection, schedule: Q04DX003 (ip), vehicle: saline sonified 92 % of control | dose: 50.0 mg/kg/injection, schedule: Q04DX003 (ip), vehicle: saline sonified 95 % of control | [7] 116 % of control | dose: 100.0 mg/kg/injection, schedule: Q04DX003 (ip), vehicle: saline sonified 92 % of control

COc1ccc(CCNC(=S)NCCc2ccc(OC)c(OC)c2)cc1OC
inactive: dose: 25.0 mg/kg/injection, schedule: Q04DX003 (ip), vehicle: Klucel (hydroxypropylcellulose) (HPC) 94 % of control | [6] 105 % of control | [1] 88 % of control | [3] 100 % of control | [2] 86 % of control

CCCCC(C(=O)OCC)C(CCC1CCCCC1)(C(=O)OCC)C(=O)OCC (stereo not given)
inactive: [1] 110 % of control | [9] 104 % of control

CCN(CC)C(N)=S
inactive: [1] 105 % of control | [3] 100 % of control | [9] 105 % of control | [4] 103 % of control | [2] 110 % of control | [5] 107 % of control

S=c1[nH]nc(NC2CCCCC2)s1
inactive: [1] 100 % of control | [3] 100 % of control | [9] 90 % of control | [4] 90 % of control | [2] 87 % of control

C/C=C(/C)N(C(C)=O)N(C(C)=O)c1ccc([N+](=O)[O-])cc1[N+](=O)[O-]
inactive: [1] 93 % of control | [9] 93 % of control | [4] 93 % of control | [2] 93 % of control

NC(=O)C(Br)CBr (stereo not given)
inactive: dose: 25.0 mg/kg/injection, schedule: Q04DX003 (ip), vehicle: saline 100 % of control | dose: 50.0 mg/kg/injection, schedule: Q04DX003 (ip), vehicle: saline 122 % of control | [7] 108 % of control | dose: 100.0 mg/kg/injection, schedule: Q04DX003 (ip), vehicle: saline 89 % of control | [8] 101 % of control

O=C(O)CCC(=O)Nc1cccc(Oc2ccc([N+](=O)[O-])cc2[N+](=O)[O-])c1
inactive: [1] 100 % of control | [9] 87 % of control | [2] 90 % of control

O=C(O)/C=C/C(=O)Nc1cccc(Oc2ccc([N+](=O)[O-])cc2[N+](=O)[O-])c1
inactive: [7] 91 % of control | [8] 103 % of control

COc1cc2c(cc1OC)C13CCN4CC5=CCOC6CC(=O)N2C1C6C5CC43 (stereo not given) (tested in a mixture with another compound)
inactive: dose: 45.0 mg/kg/injection, schedule: Q01DX001 (ip), vehicle: Klucel (hydroxypropylcellulose) (HPC) 100 % of control | dose: 65.0 mg/kg/injection, schedule: Q01DX001 (ip), vehicle: Klucel (hydroxypropylcellulose) (HPC) 100 % of control | [1] 106 % of control and 108 % of control | dose: 150.0 mg/kg/injection, schedule: Q01DX001 (ip), vehicle: Klucel (hydroxypropylcellulose) (HPC) 100 % of control

COc1cc([C@@H]2c3cc4c(cc3C[C@H]3COC(=O)[C@@H]32)OCO4)cc(OC)c1OC
inactive: dose: 5.0 mg/kg/injection, schedule: Q01DX009 (ip), vehicle: Klucel (hydroxypropylcellulose) (HPC) 107 % of control

CC[CH](C)[Hg][c]1cccc2ccccc12 (stereo not given)
inactive: [1] 91 % of control | [9] 86 % of control

O=C(NC(CSC(c1ccccc1)c1ccccc1)C(=O)O)OCc1ccccc1 (stereo not given)
inactive: [1] 95 % of control | [9] 93 % of control | [2] 95 % of control

c1ccc2c(c1)OCCOCCOc1ccccc1OCCOCCO2
inactive: [7] 107 % of control | [8] 123 % of control | [10] 103 % of control

COC(=O)C1(C)CCC(c2ccc(C)cc2)=C(CC(=O)O)C1 (stereo not given)
inactive: [7] 97 % of control | [8] 94 % of control | [10] 94 % of control

COc1ccc(COC(=O)CN2C(=O)c3ccccc3C2=O)cc1
inactive: [1] 97 % of control | [9] 100 % of control | [2] 113 % of control

COc1cccc2c1C(=O)c1c(O)c3c(c(O)c1C2=O)C[C@@](O)(C(=O)CO)C[C@@H]3OC1CC(N)C(O)C(C)O1 (stereo not given in full)
inactive: dose: 0.12 mg/kg/injection, schedule: Q01DX006 (sc), vehicle: saline 110 % of control | dose: 0.25 mg/kg/injection, schedule: Q01DX006 (ip), vehicle: saline 107 % of control | dose: 0.25 mg/kg/injection, schedule: Q01DX006 (sc), vehicle: saline 97 % of control | dose: 0.5 mg/kg/injection, schedule: Q01DX006 (ip), vehicle: saline 115 % of control | dose: 0.5 mg/kg/injection, schedule: Q01DX006 (sc), vehicle: saline 109 % of control (2×) and 110 % of control | dose: 0.5 mg/kg/injection, schedule: Q04DX003 (sc), vehicle: saline 105 % of control | dose: 0.9 mg/kg/injection, schedule: Q04DX003 (sc), vehicle: saline 105 % of control | dose: 1.0 mg/kg/injection, schedule: Q01DX006 (ip), vehicle: saline 115 % of control | dose: 1.0 mg/kg/injection, schedule: Q01DX006 (sc), vehicle: saline 117 % of control | dose: 1.5 mg/kg/injection, schedule: Q01DX006 (sc), vehicle: saline 110 % of control and 114 % of control (2×) | dose: 2.6 mg/kg/injection, schedule: Q04DX003 (sc), vehicle: saline 97 % of control

NCOC(=O)Cc1ccc(Br)cc1
inactive: [1] 106 % of control | [9] 102 % of control | [2] 106 % of control

O=NN(CCCl)C(=O)N[C@H]1CCCC[C@@H]1Cl
inactive: dose: 5.0 mg/kg/injection, schedule: Q04DX004 (ip), vehicle: Klucel (hydroxypropylcellulose) (HPC) 123 % of control | dose: 5.0 mg/kg/injection, schedule: Q04DX004 (ip), vehicle: saline 117 % of control | dose: 20.0 mg/kg/injection, schedule: Q04DX004 (ip), vehicle: Klucel (hydroxypropylcellulose) (HPC) 97 % of control

CCCn1c(=S)[nH]c2ccccc2c1=O
inactive: [1] 103 % of control | [9] 94 % of control | [2] 100 % of control

Cc1ccc(N2C(=O)CC(Sc3ccccc3N)C2=O)cc1 (stereo not given)
inactive: [6] 100 % of control | [1] 100 % of control | [3] 90 % of control | [4] 90 % of control
